In assay [1] the test system is wild type E. faecalis cells (strain TX4002). Put plainly: Biofilm formation phenotypic assay. Format: cell-based. The settings on record: exogenous GBAP added to wild type TX4002 cells.
Assay [2] has as its target T1, E. faecalis Fsr QS circuit (gelE promoter) (Enterococcus faecalis, UniProt A0ACD6TCR9). The settings on record: cited from earlier work; for EC50: read-out: EC50 [95% CI], previously published analog shown for comparison.
Assay [3] deals with T1, E. faecalis Fsr QS circuit (gelE promoter). Format: cell-based, E. faecalis TX5274. The settings on record: EC50 ratio relative to GBAP; for Fold Change relative to GBAP, loss in potency: parentheses = loss.

For the substance “GBAP (SPNIFGQWM; not fully specified; N-terminal QN tail; lactone macrocycle) [Peptide 1, reference compound]”, the “increase in the amount of biofilm formation” value in assay [1] is 30–50%. For the same substance, the 50% effective concentration (EC50) (in general, the concentration needed to bring the measured effect to its halfway point) in assay [2] is 1.15 nM.
Take “Ac-GBAP-Des(Q1N2) (SPNIFGQWM; not fully specified; N-acetyl tail; lactone macrocycle) [Peptide 10]”: the EC50 in assay [2] is 1.01 nM. The “Fold Change relative to GBAP, improvement in potency” value in assay [3] (no parentheses = improvement) was 1.1 fold.
On to GBAP-s3 [Peptide 12], for which the EC50 in assay [2] was 45.1 nM.
As for GBAP-f7 [Peptide 4], the half-maximal effective concentration (EC50) in assay [2] is 4.97 nM.
For the substance GBAP-G8A [Peptide 2], in assay [2], the “agonist activity” value was “complete loss of activity” and the concentration for a half-maximal effect (EC50) was > 10000 nM. Further, the “Fold Change relative to GBAP, loss in potency” value in assay [3] was “(> 10,000) fold”.
For the substance “GBAP-Des(Q1N2) lactam (SPNIFGQWM; head-to-tail lactam cyclization) [Peptide 11]”, in assay [2], the “agonist activity” value was “completely inactive” and the EC50 was > 10000 nM. In addition, the “Fold Change relative to GBAP, loss in potency” value in assay [3] is reported as “(> 10,000) fold”.

These data come from PMC6150820 (ACS chemical biology, 2018).
